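Dose response: 5 concentrations. Exposure: 48 h. Format: 96-well plates. Endpoint: linear interpolation; highest concentration if not reached. At the GI50, growth is halved.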 The source made the active and inactive calls. No stated cut-off is given here; in the data, active = GI50 up to about 1.1 µM and inactive = higher.
Tests used:
Test in all cases: NCI tumour cell line growth inhibition, 48 h
PC-3 = tested on: PC-3
786-0 = tested on: 786-0
HT-29 = tested on: HT-29
EKVX = tested on: EKVX
SNB-75 = tested on: SNB-75
OVCAR-4 = tested on: OVCAR-4
HCT-15 = tested on: HCT-15
HCC 2998 = tested on: HCC 2998
T47D = tested on: T47D
NCI/ADR-RES = tested on: NCI/ADR-RES
SNB-19 = tested on: SNB-19
KM12 = tested on: KM12
IGROV-1 = tested on: IGROV-1
ACHN = tested on: ACHN
CCRF-CEM = tested on: CCRF-CEM
NCI-H23 = tested on: NCI-H23
RXF 393 = tested on: RXF 393
UO-31 = tested on: UO-31
SN12C = tested on: SN12C

| Structure (SMILES) | GI50 (PC-3) | GI50 (786-0) | GI50 (HT-29) | GI50 (EKVX) | GI50 (SNB-75) | GI50 (OVCAR-4) | GI50 (HCT-15) [µM] | GI50 (HCC 2998) | GI50 (T47D) | GI50 (NCI/ADR-RES) | GI50 (SNB-19) | GI50 (KM12) | GI50 (IGROV-1) | GI50 (ACHN) | GI50 (CCRF-CEM) | GI50 (NCI-H23) | GI50 (RXF 393) | GI50 (UO-31) | GI50 (SN12C) |
| --- | --- | --- | --- | --- | --- | --- | --- | --- | --- | --- | --- | --- | --- | --- | --- | --- | --- | --- | --- |
| CCN1CC2(C)CCC(OC)C34C5CC6CCC(O)(C5C(=O)O6)C(C(O)C23)C14 (stereo not drawn) | > 100 µM (inactive) | > 100 µM (inactive) | > 100 µM (inactive) | > 100 µM (inactive) | > 100 µM (inactive) | > 100 µM (inactive) | > 100 | > 10 µM (inactive) | > 100 µM (inactive) | > 100 µM (inactive) | > 100 µM (inactive) | > 100 µM (inactive) | > 100 µM (inactive) | > 100 µM (inactive) | > 100 µM (inactive) | > 100 µM (inactive) | > 100 µM (inactive) | > 100 µM (inactive) | – |
| CC(=O)c1c(SCCN2CCCC2)n(-c2ccccc2)c(=S)n(-c2ccccc2)c1=O | 3.56 µM (inactive) | 1.6 µM (inactive) | 6.62 µM (inactive) | 17 µM (inactive) | 14.6 µM (inactive) | 29 µM (inactive) | 4.01 | 3.1 µM (inactive) | 2.11 µM (inactive) | 26.9 µM (inactive) | 28.4 µM (inactive) | 23.2 µM (inactive) | 7.03 µM (inactive) | 1.72 µM (inactive) | 1.7 µM (inactive) | 17.4 µM (inactive) | 2.3 µM (inactive) | 1.4 µM (inactive) | 7.16 µM (inactive) |
| c1ccc2c(c1)ccn2CCc1c[nH]c2ccccc12 | > 10 µM (inactive) | > 10 µM (inactive) | > 10 µM (inactive) | > 10 µM (inactive) | > 10 µM (inactive) | > 10 µM (inactive) | > 10 | > 10 µM (inactive) | > 10 µM (inactive) | > 10 µM (inactive) | > 10 µM (inactive) | > 10 µM (inactive) | > 10 µM (inactive) | > 10 µM (inactive) | > 10 µM (inactive) | > 10 µM (inactive) | 9.31 µM (inactive) | 9.86 µM (inactive) | > 10 µM (inactive) |
| CCC(C)C1NC(=O)C(NC(=O)c2c3nc4c(C(=O)NC5C(=O)NC(C(C)CC)C(=O)N6CCCC6C(=O)N(C)CC(=O)N(C)C(C(C)C)C(=O)OC5C)ccc(C)c4oc-3c(C)c(=O)c2O)C(C)OC(=O)C(C(C)C)N(C)C(=O)CN(C)C(=O)C2CCCN2C1=O (stereo not drawn) | 3.99 µM (inactive) | 3.37 µM (inactive) | 1.06 µM (active) | 14.2 µM (inactive) | 2.62 µM (inactive) | 14.3 µM (inactive) | 16.6 | 3.16 µM (inactive) | 2.84 µM (inactive) | 21.9 µM (inactive) | 11.5 µM (inactive) | 1.63 µM (inactive) | 0.239 µM (active) | 4.89 µM (inactive) | 0.499 µM (active) | 5.41 µM (inactive) | 2.54 µM (inactive) | 10.4 µM (inactive) | 1.17 µM (inactive) |
| CN(CCCNC(=O)c1cn(C)c2c1ccc1cc(Cl)ccc12)CCCNC(=O)c1cn(C)c2c1ccc1cc(Cl)ccc12 | 1.78 µM (inactive) | 1.65 µM (inactive) | 2.05 µM (inactive) | 2.33 µM (inactive) | 1.57 µM (inactive) | 2.52 µM (inactive) | 1.78 | 1.2 µM (inactive) | 1.8 µM (inactive) | 2.16 µM (inactive) | 2.39 µM (inactive) | 1.72 µM (inactive) | 1.46 µM (inactive) | 1.71 µM (inactive) | 1.23 µM (inactive) | 3.91 µM (inactive) | 1.3 µM (inactive) | 1.41 µM (inactive) | 1.87 µM (inactive) |
| Cc1nc2cc(C(F)(F)F)ccc2[nH]c1=O | > 100 µM (inactive) | > 100 µM (inactive) | > 100 µM (inactive) | 7.08 µM (inactive) | > 100 µM (inactive) | > 100 µM (inactive) | > 100 | > 100 µM (inactive) | 45.5 µM (inactive) | > 100 µM (inactive) | > 100 µM (inactive) | > 100 µM (inactive) | – | > 100 µM (inactive) | > 100 µM (inactive) | > 100 µM (inactive) | > 100 µM (inactive) | > 100 µM (inactive) | > 100 µM (inactive) |
| O=[N+]([O-])c1ccc2[nH]nc(OCc3ccccc3Cl)c2c1 | > 100 µM (inactive) | 25 µM (inactive) | > 100 µM (inactive) | 54.2 µM (inactive) | 81.5 µM (inactive) | 41.3 µM (inactive) | 85.5 | 59.6 µM (inactive) | 15 µM (inactive) | 25 µM (inactive) | 34.7 µM (inactive) | 91.4 µM (inactive) | 91.2 µM (inactive) | 19.8 µM (inactive) | > 100 µM (inactive) | 31.9 µM (inactive) | 18.2 µM (inactive) | > 10 µM (inactive) | > 100 µM (inactive) |
| COC[C@H]1C(=O)NCC(=O)N2N=CCC[C@H]2C(=O)N(O)[C@H](C)C(=O)O[C@@H](C(C)C)[C@H](NC(=O)[C@@](C)(O)[C@]2(O)CC[C@@H](CC(C)C)[C@H](C)O2)C(=O)N2NCCC[C@@H]2C(=O)N1O | 0.0175 µM (active) | 0.0174 µM (active) | 0.0172 µM (active) | 0.0292 µM (active) | < 0.0109 µM (active) | 0.0168 µM (active) | 0.12 | 0.0169 µM (active) | 0.0228 µM (active) | 0.316 µM (active) | 0.0163 µM (active) | 0.0134 µM (active) | 0.0157 µM (active) | 0.0324 µM (active) | 0.0216 µM (active) | 0.0163 µM (active) | 0.0172 µM (active) | 0.169 µM (active) | 0.0185 µM (active) |
| CCOc1cc2c(cc1O)CC[C@@H]1[C@@H]2CC[C@]2(C)C(OS(=O)OC3CC[C@@H]4[C@H]5CCc6cc(O)c(OCC)cc6[C@@H]5CC[C@@]34C)CC[C@@H]12 (stereo partly drawn) | 3.94 µM (inactive) | 0.583 µM (active) | 22.6 µM (inactive) | 3.21 µM (inactive) | 0.51 µM (active) | 9.2 µM (inactive) | 0.507 | 16 µM (inactive) | 5.66 µM (inactive) | 0.441 µM (active) | 2.64 µM (inactive) | 4.59 µM (inactive) | 4.52 µM (inactive) | 1.88 µM (inactive) | 0.466 µM (active) | 1.84 µM (inactive) | 1.29 µM (inactive) | 5.48 µM (inactive) | 1.68 µM (inactive) |
| C=C1CC[C@H](O)C(C)(C)[C@@H]1CC/C(C)=C/CC/C=C(\C)CC/C=C(\C)CCC=C(C)C | > 100 µM (inactive) | > 100 µM (inactive) | > 100 µM (inactive) | 97.9 µM (inactive) | > 100 µM (inactive) | > 100 µM (inactive) | 87.3 | 76.6 µM (inactive) | 18.7 µM (inactive) | > 100 µM (inactive) | > 100 µM (inactive) | > 100 µM (inactive) | > 100 µM (inactive) | > 100 µM (inactive) | 1.82 µM (inactive) | 45.7 µM (inactive) | 13.7 µM (inactive) | > 100 µM (inactive) | 66.2 µM (inactive) |
| CCCc1cn2c(/C=N/NC(=N)N)c(-c3ccc([N+](=O)[O-])cc3)nc2s1 | 2.01 µM (inactive) | 0.853 µM (active) | 0.275 µM (active) | 1.95 µM (inactive) | 1.8 µM (inactive) | 1.06 µM (active) | 1.36 | 0.578 µM (active) | 1.67 µM (inactive) | 1.89 µM (inactive) | 1.71 µM (inactive) | 1.52 µM (inactive) | 1.77 µM (inactive) | 1.67 µM (inactive) | 0.277 µM (active) | 1.61 µM (inactive) | 1.73 µM (inactive) | 1.91 µM (inactive) | 1.58 µM (inactive) |
| Cc1ccc(/C=N/n2c(-c3ccc(C)cc3)n[nH]c2=O)cc1 | > 100 µM (inactive) | 29.6 µM (inactive) | > 100 µM (inactive) | > 100 µM (inactive) | > 100 µM (inactive) | 40 µM (inactive) | 66.7 | > 100 µM (inactive) | > 100 µM (inactive) | 59.6 µM (inactive) | 77.4 µM (inactive) | > 100 µM (inactive) | > 100 µM (inactive) | 79.8 µM (inactive) | 21.5 µM (inactive) | 29.2 µM (inactive) | 23.1 µM (inactive) | 75 µM (inactive) | 94.6 µM (inactive) |
| O=C(CC(C(=O)c1cccs1)c1ccsc1)c1cccs1 (stereo not drawn) | 45.2 µM (inactive) | > 100 µM (inactive) | > 100 µM (inactive) | 28.8 µM (inactive) | 12.8 µM (inactive) | 79.8 µM (inactive) | 71.3 | 83.9 µM (inactive) | 26.3 µM (inactive) | 31.9 µM (inactive) | > 100 µM (inactive) | 71.3 µM (inactive) | > 100 µM (inactive) | > 100 µM (inactive) | 37.8 µM (inactive) | > 100 µM (inactive) | 53.6 µM (inactive) | 51.3 µM (inactive) | > 100 µM (inactive) |
| Nc1ncc(Cl)c(NCC2(CO)CC(CCc3ccccc3)C2)n1 (stereo not drawn) | > 100 µM (inactive) | > 100 µM (inactive) | – | > 24.9 µM (inactive) | 46.2 µM (inactive) | > 100 µM (inactive) | > 100 | > 100 µM (inactive) | 1.07 µM (active) | 3.61 µM (inactive) | > 100 µM (inactive) | > 100 µM (inactive) | > 100 µM (inactive) | 34 µM (inactive) | > 67.8 µM (inactive) | > 100 µM (inactive) | > 100 µM (inactive) | > 100 µM (inactive) | > 100 µM (inactive) |
